Measurements published in ChEMBL document CHEMBL5634121, “Discovery of novel G9a/GLP covalent inhibitors for the treatment of triple-negative breast cancer” (Eur J Med Chem, 2023).
Activity calls are given as the source filed them. The calls are words filed in the database; no cut-off is given here.

What was measured:
[1] = target: T1, Histone-lysine N-methyltransferase EHMT2 (Homo sapiens, UniProt Q96KQ7); test: Inhibition of G9a (unknown origin)
T1 sequence (Q96KQ7 whole entry): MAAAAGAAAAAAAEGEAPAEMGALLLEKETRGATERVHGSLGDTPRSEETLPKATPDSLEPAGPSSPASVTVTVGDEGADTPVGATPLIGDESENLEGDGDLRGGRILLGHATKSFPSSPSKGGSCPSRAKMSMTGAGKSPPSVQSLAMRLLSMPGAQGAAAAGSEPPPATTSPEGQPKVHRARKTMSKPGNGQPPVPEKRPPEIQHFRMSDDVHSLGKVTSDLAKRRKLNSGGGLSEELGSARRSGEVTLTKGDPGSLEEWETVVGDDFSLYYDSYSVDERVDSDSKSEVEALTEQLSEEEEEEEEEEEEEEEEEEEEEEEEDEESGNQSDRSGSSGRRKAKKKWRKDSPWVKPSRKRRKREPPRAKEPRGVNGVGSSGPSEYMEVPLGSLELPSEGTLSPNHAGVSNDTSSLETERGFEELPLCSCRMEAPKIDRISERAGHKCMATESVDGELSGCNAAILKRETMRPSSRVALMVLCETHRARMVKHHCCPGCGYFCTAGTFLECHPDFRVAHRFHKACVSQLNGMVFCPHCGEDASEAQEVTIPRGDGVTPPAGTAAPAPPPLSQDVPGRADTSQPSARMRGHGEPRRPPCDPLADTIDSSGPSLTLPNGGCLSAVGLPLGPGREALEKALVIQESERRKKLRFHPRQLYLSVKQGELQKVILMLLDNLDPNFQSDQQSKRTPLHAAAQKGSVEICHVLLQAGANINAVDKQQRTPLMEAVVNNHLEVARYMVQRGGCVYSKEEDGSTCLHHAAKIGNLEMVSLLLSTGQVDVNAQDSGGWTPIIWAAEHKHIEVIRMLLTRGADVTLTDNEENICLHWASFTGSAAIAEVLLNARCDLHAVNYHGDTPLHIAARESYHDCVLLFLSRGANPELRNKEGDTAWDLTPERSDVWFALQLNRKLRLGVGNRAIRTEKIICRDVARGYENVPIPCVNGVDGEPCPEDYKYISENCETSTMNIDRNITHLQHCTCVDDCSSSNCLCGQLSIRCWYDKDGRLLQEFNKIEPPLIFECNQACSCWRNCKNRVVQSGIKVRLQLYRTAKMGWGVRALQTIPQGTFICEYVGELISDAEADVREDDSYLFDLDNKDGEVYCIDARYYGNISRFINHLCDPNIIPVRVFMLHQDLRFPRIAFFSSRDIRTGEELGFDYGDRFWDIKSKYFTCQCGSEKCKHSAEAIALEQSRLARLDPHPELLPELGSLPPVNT

[2] = target: T2, Histone-lysine N-methyltransferase EHMT1 (Homo sapiens) (UniProt Q9H9B1); test: Inhibition of GLP (unknown origin) at 1 uM
T2 sequence (whole entry): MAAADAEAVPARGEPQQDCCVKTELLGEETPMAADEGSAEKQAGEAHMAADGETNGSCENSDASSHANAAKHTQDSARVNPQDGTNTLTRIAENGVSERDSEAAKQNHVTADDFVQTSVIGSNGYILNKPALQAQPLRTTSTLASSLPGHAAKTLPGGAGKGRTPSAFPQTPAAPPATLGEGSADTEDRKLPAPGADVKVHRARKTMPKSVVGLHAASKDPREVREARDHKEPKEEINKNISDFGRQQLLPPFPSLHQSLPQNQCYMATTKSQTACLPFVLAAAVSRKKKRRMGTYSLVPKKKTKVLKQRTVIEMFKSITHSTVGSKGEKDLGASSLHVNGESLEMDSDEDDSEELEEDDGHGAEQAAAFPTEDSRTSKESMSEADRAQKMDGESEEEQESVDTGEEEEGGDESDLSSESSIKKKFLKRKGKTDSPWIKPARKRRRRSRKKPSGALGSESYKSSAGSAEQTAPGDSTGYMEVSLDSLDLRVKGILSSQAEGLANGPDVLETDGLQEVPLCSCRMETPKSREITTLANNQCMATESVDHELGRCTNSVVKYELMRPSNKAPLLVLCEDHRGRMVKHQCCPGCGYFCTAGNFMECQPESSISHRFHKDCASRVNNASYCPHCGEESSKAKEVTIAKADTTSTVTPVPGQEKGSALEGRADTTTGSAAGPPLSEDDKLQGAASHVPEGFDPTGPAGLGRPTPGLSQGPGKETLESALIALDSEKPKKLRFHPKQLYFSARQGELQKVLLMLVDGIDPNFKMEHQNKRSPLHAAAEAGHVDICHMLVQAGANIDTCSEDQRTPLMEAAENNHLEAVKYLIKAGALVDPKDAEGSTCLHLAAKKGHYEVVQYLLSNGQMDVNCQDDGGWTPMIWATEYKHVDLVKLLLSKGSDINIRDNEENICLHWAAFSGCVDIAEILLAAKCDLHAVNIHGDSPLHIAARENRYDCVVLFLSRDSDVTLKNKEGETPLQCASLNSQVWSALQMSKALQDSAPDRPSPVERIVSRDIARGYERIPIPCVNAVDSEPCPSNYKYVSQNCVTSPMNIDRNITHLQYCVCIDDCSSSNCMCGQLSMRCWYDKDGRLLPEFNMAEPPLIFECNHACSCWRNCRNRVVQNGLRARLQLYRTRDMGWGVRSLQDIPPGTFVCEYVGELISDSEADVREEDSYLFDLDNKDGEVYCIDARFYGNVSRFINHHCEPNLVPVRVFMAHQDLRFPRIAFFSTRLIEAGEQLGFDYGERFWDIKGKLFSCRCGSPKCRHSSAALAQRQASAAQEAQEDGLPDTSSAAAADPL

[3] = Cmax in ICR mouse at 2 mg/kg, iv measured upto 12 hrs by LC-MS/MS analysis; type: ADME, organism-based; conditions: in vivo
[4] = Tmax in ICR mouse at 2 mg/kg, iv measured upto 12 hrs by LC-MS/MS analysis; type: ADME, organism-based; conditions: in vivo
MDA-MB-231 [5] = test: Induction of apoptosis in human MDA-MB-231 cells assessed as viable cells at 10 uM incubated for 72 hrs by Annexin V and PI staining based flow cytometry analysis (reference value: 98.31 %); type: functional; conditions: read-out: Activity
MDA-MB-231 [6] = test: Induction of apoptosis in human MDA-MB-231 cells assessed as late apoptotic cells at 10 uM incubated for 72 hrs by Annexin V and PI staining based flow cytometry analysis (reference value: 0.45 %); type: functional
MDA-MB-231 [7] = test: Induction of apoptosis in human MDA-MB-231 cells assessed as necrotic cells at 10 uM incubated for 72 hrs by Annexin V and PI staining based flow cytometry analysis (reference value: 0.32 %); type: functional
MDA-MB-231 [8] = test: Induction of apoptosis in human MDA-MB-231 cells assessed as viable cells at 20 uM incubated for 72 hrs by Annexin V and PI staining based flow cytometry analysis (reference value: 98.31 %); type: functional; conditions: read-out: Activity
[9] = target: Histone-lysine N-methyltransferase EHMT1/EHMT2 (Homo sapiens) (UniProt Q9H9B1+Q96KQ7); test: Inhibition of G9a/GLP in human MDA-MB-231 cells assessed as reduction in H3K9 dimethylation incubated for 3 days by Western blotting analysis; type: cell-based; conditions: dose 2.5-20 µM, time 3.0 day

With C=CC(=O)Nc1cccc(-c2nc(NC3CCN(C)CC3)c3cc(OC)c(OC)cc3n2)c1 the IC50 [1] was 1220 nM, the inhibition [2] was “Active” and the Cmax [3] was 911 ng/mL. For the same compound, the Tmax [4] was 25.2 min, the viability at 10 µM (MDA-MB-231 [5]) was 89.1% and the Activity (MDA-MB-231 [6]) was 5.89%. For the same compound, the Activity (MDA-MB-231 [7]) was 1.28%, the viability at 20 µM (MDA-MB-231 [8]) was 39.3% and the inhibition [9] was “Dose-Dependent Effect”.
